The text below walks through data of article PMC3676426 (European journal of clinical pharmacology, 2013).

Read-outs that look alike come from different tables or passages of the source.

The format of series [1] is in vivo, human. Conditions: atorvastatin 40 mg for five days, CGC/CGC, CGC/TTT.
For series [2] the following is noted: simvastatin 40 mg co-administered; cited from earlier work.
For series [3] the following is noted: simvastatin 80 mg; cited from earlier work.
For series [4] the following is noted: single 600 mg dose of cyclosporine; cited from earlier work.
The nature of series [5]: clinical. The following applies: both, human, in vivo, 100 mg; for AUC(0-inf): AUC0-∞; for CL renal: CLR; for half-life: t1/2.
For series [6] the following is noted: both, human, in vivo, po, 100 mg.
For series [7] the following is noted: mainly through active tubular secretion; cited from earlier work.
The conditions of series [8]: atorvastatin 80 mg; cited from earlier work.

In the case of `CC(C)c1c(C(=O)Nc2ccc(O)cc2)c(-c2ccccc2)c(-c2ccc(F)cc2)n1CCC1CC(O)CC(=O)O1` (stereo not drawn) [4-hydroxyatorvastatin lactone], the “influence of ABCB1 diplotype on pharmacokinetic parameters” value (shortened to “influence of ABCB1 diplotype”) in series [1] is reported as “not significantly affected”.
Turning to `CC(C)c1c(C(=O)Nc2ccccc2O)c(-c2ccccc2)c(-c2ccc(F)cc2)n1CCC(O)CC(O)CC(=O)O` (stereo not drawn) [2-hydroxyatorvastatin], the “influence of ABCB1 diplotype” value in series [1] is on record as “not significantly affected”.
On to `CC(C)c1c(C(=O)Nc2ccccc2O)c(-c2ccccc2)c(-c2ccc(F)cc2)n1CCC1CC(O)CC(=O)O1` (stereo not drawn) [2-hydroxyatorvastatin lactone], for which the “influence of ABCB1 diplotype” value in series [1] is “not significantly affected”.
With `CC(C)c1c(C(=O)Nc2ccccc2)c(-c2ccccc2)c(-c2ccc(F)cc2)n1CC[C@@H]1C[C@@H](O)CC(=O)O1` [Atorvastatin lactone, atorvastatin lactone], in series [1], the “influence of ABCB1 diplotype” value is reported as “did not differ significantly”.
In the case of `N#C[C@@H]1C[C@@H]2C[C@@H]2N1C(=O)[C@@H](N)C12CC3CC(CC(O)(C3)C1)C2` [saxagliptin], the “increase of AUC by simvastatin” value in series [2] is on record as 12%.
Regarding `N#C[C@@H]1CCCN1C(=O)CNC12CC3CC(CC(O)(C3)C1)C2` [vildagliptin], the “effect of simvastatin on multiple-dose pharmacokinetics” value in series [3] is reported as “did not alter”.
Broadly, the AUC(0-inf) is the area under the concentration-time curve extrapolated to infinity. One may read the Cmax as the highest concentration seen after dosing. The half-life is the time in which the quantity being followed falls by half. Low values mean fast loss, high ones slow loss. In general, AUC(0-t) refers to the area under the concentration-time curve up to a stated or last time point. High values mean high exposure, low ones low exposure. In the case of `N[C@@H](CC(=O)N1CCn2c(nnc2C(F)(F)F)C1)Cc1cc(F)c(F)cc1F` [Sitagliptin, sitagliptin], in series [4], the “effect of cyclosporine on Cmax” value is on record as “modestly increased” and the “effect of cyclosporine on overall plasma exposure” value is “did not have a significant effect”. In series [5], the total exposure AUC(0-inf) was found to be 3220 ng·h/mL, the CL renal was 254 mL/min, the maximum concentration (Cmax) stood at 399 ng/mL and the half-life was 7.4 ± 2.5 h. Further, the AUC(0-t) in series [5] (po, AUC0-24) was determined as 3230 ± 1220 ng·h/mL. In series [5] (po), the AUC(0-inf) worked out at 3640 ± 1440 ng·h/mL, the CL renal was determined as 254 ± 176 mL/min, the peak level (Cmax) was 454 ± 180 ng/mL and the half-life is 7.3 ± 3 h. In series [6], this molecule registered a peak concentration (Cmax) of 438 ± 152 ng/mL. In series [7], the “drug excreted unchanged in the urine” value is on record as “about 80%”.
Regarding `Cn1c(=O)cc(N2CCC[C@@H](N)C2)n(Cc2ccccc2C#N)c1=O` [alogliptin], the “effect of atorvastatin on multiple-dose pharmacokinetics” value in series [8] is given as “did not alter”.
For the molecule `CC(C)c1c(C(=O)Nc2ccc(O)cc2)c(-c2ccccc2)c(-c2ccc(F)cc2)n1CC[C@@H](O)C[C@@H](O)CC(=O)O` [4-hydroxyatorvastatin], the “influence of ABCB1 diplotype” value in series [1] is reported as “not significantly affected”.
